Measured values taken from the NIST ThermoML archive (doi:10.1021/acs.jced.7b00106).

Details: Hot wire method

FC(F)(F)/C=C/Cl [(E)-1-chloro-3,3,3-trifluoroprop-1-ene]
Details	thermal conductivity [W/m/K]
283.61 K, 46184 kPa, Liquid	0.1051
283.62 K, 194 kPa, Liquid	0.08723
283.64 K, 39507 kPa, Liquid	0.1031
283.71 K, 33240 kPa, Liquid	0.1008
283.73 K, 64639 kPa, Liquid	0.1101
283.76 K, 27097 kPa, Liquid	0.09854
283.77 K, 55316 kPa, Liquid	0.1077
283.82 K, 46190 kPa, Liquid	0.1049
283.86 K, 39512 kPa, Liquid	0.1027
283.93 K, 33245 kPa, Liquid	0.1004
283.99 K, 27090 kPa, Liquid	0.0982
301.07 K, 36400 kPa, Liquid	0.09652
301.1 K, 25797 kPa, Liquid	0.09286
301.12 K, 8081 kPa, Liquid	0.08639
301.14 K, 16454 kPa, Liquid	0.08935
301.14 K, 36402 kPa, Liquid	0.09595
301.16 K, 25808 kPa, Liquid	0.09205
301.18 K, 7827 kPa, Liquid	0.08636
301.18 K, 8082 kPa, Liquid	0.08488
301.18 K, 25511 kPa, Liquid	0.09374
301.2 K, 16447 kPa, Liquid	0.08939
301.24 K, 25515 kPa, Liquid	0.09289
301.25 K, 302 kPa, Liquid	0.08142
301.25 K, 4078 kPa, Liquid	0.08444
301.25 K, 7830 kPa, Liquid	0.08532
301.27 K, 16013 kPa, Liquid	0.08986
301.31 K, 4086 kPa, Liquid	0.08339
301.33 K, 303 kPa, Liquid	0.08177
301.39 K, 62986 kPa, Liquid	0.1067
301.41 K, 56492 kPa, Liquid	0.1055
301.42 K, 48436 kPa, Liquid	0.1008
301.43 K, 65550 kPa, Liquid	0.1085
301.44 K, 36396 kPa, Liquid	0.09731
301.47 K, 62992 kPa, Liquid	0.1061
301.48 K, 42020 kPa, Liquid	0.09884
301.49 K, 25801 kPa, Liquid	0.09292
301.49 K, 56482 kPa, Liquid	0.1049
301.5 K, 36232 kPa, Liquid	0.09714
301.5 K, 48438 kPa, Liquid	0.1006
301.5 K, 65547 kPa, Liquid	0.1082
301.52 K, 47198 kPa, Liquid	0.101
301.53 K, 8090 kPa, Liquid	0.08523
301.53 K, 36388 kPa, Liquid	0.09726
301.54 K, 16449 kPa, Liquid	0.09014
301.54 K, 20530 kPa, Liquid	0.09027
301.55 K, 25503 kPa, Liquid	0.09319
301.55 K, 30551 kPa, Liquid	0.09454
301.56 K, 143 kPa, Gas	0.01127
301.56 K, 145 kPa, Gas	0.01102
301.56 K, 42014 kPa, Liquid	0.09907
301.57 K, 36234 kPa, Liquid	0.09632
301.58 K, 25794 kPa, Liquid	0.0925
301.59 K, 122 kPa, Gas	0.01123
301.59 K, 131 kPa, Gas	0.01121
301.6 K, 7831 kPa, Liquid	0.08616
301.6 K, 11892 kPa, Liquid	0.08784
301.6 K, 47198 kPa, Liquid	0.1006
301.61 K, 16007 kPa, Liquid	0.08871
301.62 K, 8093 kPa, Liquid	0.08518
301.63 K, 367 kPa, Liquid	0.08213
301.63 K, 7868 kPa, Liquid	0.08523
301.63 K, 16455 kPa, Liquid	0.08833
301.63 K, 20523 kPa, Liquid	0.09097
301.63 K, 30560 kPa, Liquid	0.09455
301.65 K, 25502 kPa, Liquid	0.09219
301.68 K, 4077 kPa, Liquid	0.08414
301.69 K, 311 kPa, Liquid	0.08156
301.69 K, 11881 kPa, Liquid	0.08767
301.69 K, 16012 kPa, Liquid	0.08885
301.7 K, 7834 kPa, Liquid	0.08567
301.72 K, 7864 kPa, Liquid	0.08629
301.73 K, 363 kPa, Liquid	0.08194
